Values quoted from earlier work in US8304000B2, “Process for preparing water extract of cinnamon” (Beijing Tang-An Nutrition & Healthcare Products Co. Ltd., priority 2010, dated 2012).

solubility in alcohol (alcohol): readily soluble
solubility in water (water): poorly soluble
SMILES: O=c1ccc2ccccc2o1 [Coumarin, 1-benzopyran-2-one]
